Results published in patent US10214531B2 (Institute for Drug Discovery, LLC, priority 2013, dated 2019).
Structures can show the parent of a compound that is named as a salt.

Target: recombinant human AMCase (Homo sapiens, UniProt Q9BZP6)
Test: Human AMCase Activity Assay
Format: biochemical
Conditions: recombinant hAMCase, 4-methylumbelliferyl chitobioside substrate, citrate buffer pH 5.2, 37° C., 60 minutes; read-out: Activity (IC50 value key)
Procedure, shortened: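 Recombinant human enzyme with fluorogenic 4-methylumbelliferyl β-D-N,N′-diacetylchitobioside substrate in citrate buffer, pH 5.2, 60 min at 37 °C in the dark with shaking. Read-out is 4MU fluorescence at 460 nm.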

Chain of recombinant human AMCase (Q9BZP6 22-476): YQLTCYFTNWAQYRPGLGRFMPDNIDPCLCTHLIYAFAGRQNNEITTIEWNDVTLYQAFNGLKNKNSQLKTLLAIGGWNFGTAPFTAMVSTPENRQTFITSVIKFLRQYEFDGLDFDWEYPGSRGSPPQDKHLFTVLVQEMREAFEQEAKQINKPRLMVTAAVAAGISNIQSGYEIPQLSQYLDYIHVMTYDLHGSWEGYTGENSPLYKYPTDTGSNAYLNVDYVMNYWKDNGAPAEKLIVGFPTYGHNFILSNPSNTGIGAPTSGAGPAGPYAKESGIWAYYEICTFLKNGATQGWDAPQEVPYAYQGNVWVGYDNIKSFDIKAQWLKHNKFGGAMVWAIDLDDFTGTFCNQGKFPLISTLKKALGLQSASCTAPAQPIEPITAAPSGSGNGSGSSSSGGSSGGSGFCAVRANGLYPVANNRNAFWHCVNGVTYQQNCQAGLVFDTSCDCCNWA

Q: For `Nc1n[nH]c(N2CCC(N(CCc3ccc(Cl)cc3)Cc3ccncc3)CC2)n1` [Example 108, 1-(3-amino-1H-1,2,4-triazol-5-yl)-N-(4-chlorophenethyl)-N-(pyridin-4-ylmethyl) piperidin-4-amine], which IC50 is on record?
A: Its IC50 is under 0.1 µM.

Q: `CN(CCc1ccc2c(c1)OCO2)C1CCN(c2nc(N)n[nH]2)CC1` [Example 170, 1-(3-amino-1H-1,2,4-triazol-5-yl)-N-(2-(benzo[d][1,3]dioxol-5-yl)ethyl)-N-methylpiperidin-4-amine] was tested. Which IC50 did it give?
A: The IC50 was 1 to 10 µM.

Q: Which IC50 does the source give for `CCCC1(NCCc2ccc(Br)cc2)CCN(c2nc(N)n[nH]2)CC1` [Example 247, 1-(3-amino-1H-1,2,4-triazol-5-yl)-N-(4-bromophenethyl)1-4-propyl piperidin-4-amine, dihydrochloride] here?
A: Its IC50 is 1 to 10 µM.

Q: Which IC50 does the source give for `Nc1n[nH]c(N2CCC(N(CCc3ccc(Cl)cc3)Cc3ccc(C(F)(F)F)cc3)CC2)n1` [Example 104, 1-(3-amino-1H-1,2,4-triazol-5-yl)-N-(4-chlorophenethyl)-N-(4-(trifluoromethyl)benzyl)piperidin-4-amine] here?
A: The IC50 was under 0.1 µM.

Q: How did the IC50 turn out when `Cc1cccc(C(=O)NCC2CCN(c3nc(N)n[nH]3)CC2)c1C` [Example 210, N-((1-(3-amino-1H-1,2,4-triazol-5-yl)piperidin-4-yl)methyl)-2,3-dimethylbenzamide] was run?
A: Its IC50 is over 100 µM.

Q: With `CCc1ccc(OC(C)C(=O)N2CCN(c3nc(N)n[nH]3)CC2)cc1` (centres unmarked) [Example 31, 1-(4-(3-amino-1H-1,2,4-triazol-5-yl)piperazin-1-yl)-2-(4-ethylphenoxy)propan-1-one] as the molecule, how does the IC50 read?
A: Its IC50 is over 100 µM.

Q: How did the IC50 turn out when `Nc1n[nH]c(N2CCC(N(CCc3ccc(Cl)cc3)[C@@H](CO)c3ccccc3)CC2)n1` [Example 107, (R)-2-((1-(3-amino-1H-1,2,4-triazol-5-yl)piperidin-4-yl)(4-chlorophenethyl)amino)-2-phenylethan-1-ol] was run?
A: Its IC50 is 0.1 to 1 µM.

Q: Which IC50 does the source give for `Nc1n[nH]c(N2CCC(N(CCc3ccc(Cl)cc3)Cc3cnc4ccccc4n3)CC2)n1` [Example 116, 1-(3-amino-1H-1,2,4-triazol-5-yl)-N-(4-chlorophenethyl)-N-(quinoxalin-2-ylmethyl) piperidin-4-amine dihydrochloride] here?
A: Its IC50 is 0.1 to 1 µM.

Q: Which IC50 does the source give for `Nc1n[nH]c(N2CCC(NS(=O)(=O)Cc3cccc(Cl)c3)CC2)n1` [Example 59, N-(1-(3-amino-1H-1,2,4-triazol-5-yl)piperidin-4-yl)-1-(3-chlorophenyl)methanesulfonamide] here?
A: The IC50 was 1 to 10 µM.

Q: Which IC50 does the source give for `CCCC1CN(c2nc(N)n[nH]2)CCC1NCCc1ccc(Cl)cc1` (single isomer, unassigned) [Example 231, 1-(3-amino-1H-1,2,4-triazol-5-yl)-N-(4-chlorophenethyl)-3-propylpiperidin-4-amine] here?
A: Its IC50 is 0.1 to 1 µM.

Q: With `Nc1n[nH]c(N2CCC(N(CCc3ccc(Cl)cc3)Cc3ccccc3-c3ccccc3)CC2)n1` [Example 114, N-([1,1′-biphenyl]-2-ylmethyl)-1-(3-amino-1H-1,2,4-triazol-5-yl)-N-(4-chlorophenethyl) piperidin-4-amine] as the molecule, how does the IC50 read?
A: Its IC50 is under 0.1 µM.

Q: With `Nc1n[nH]c(N2CCN(C(=O)CC(N)c3ccccc3F)CC2)n1` (centres unmarked) [Example 214, 3-amino-1-(4-(3-amino-1H-1,2,4-triazol-5-yl)piperazin-1-yl)-3-(2-fluorophenyl)propan-1-one dihydrochloride] as the molecule, how does the IC50 read?
A: Its IC50 is over 100 µM.

Q: Which IC50 does the source give for `CC(C)(C)CCN(CCc1ccc(Cl)cc1)C1CCN(c2nc(N)n[nH]2)CC1` [Example 93, 1-(3-amino-1H-1,2,4-triazol-5-yl)-N-(4-chlorophenethyl)-N-(3,3-dimethylbutyl) piperidin-4-amine] here?
A: The IC50 was under 0.1 µM.

Q: Which IC50 does the source give for `Nc1n[nH]c(N2CCC(C(=O)NCc3cc(C(F)(F)F)cc(C(F)(F)F)c3)CC2)n1` [Example 255, 1-(3-amino-1H-1,2,4-triazol-5-yl)-N-(3,5-bis(trifluoromethyl)benzyl)piperidine-4-carboxamide] here?
A: Its IC50 is over 100 µM.

Q: How did the IC50 turn out when `CN(C)C(Cc1ccc(Cl)cc1Cl)C(=O)N1CCN(c2nc(N)n[nH]2)CC1` (centres unmarked) [Example 240, 1-(4-(3-amino-1H-1,2,4-triazol-5-yl)piperazin-1-yl)-3-(2,4-dichlorophenyl)-2-(dimethylamino)propan-1-one] was run?
A: The IC50 was over 100 µM.

Q: How did the IC50 turn out when `Nc1n[nH]c(N2CCC(N(CCc3ccc(Cl)cc3)Cc3ccc(F)cc3)CC2)n1` [Example 123, 1-(3-amino-1H-1,2,4-triazol-5-yl)-N-(4-chlorophenethyl)-N-(4-fluorobenzyl)piperidin-4-amine] was run?
A: The IC50 was under 0.1 µM.

Q: Which IC50 does the source give for `CN(CCc1ccc(Cl)c(Cl)c1)C1CCN(c2nc(N)n[nH]2)CC1` [Example 176, 1-(3-amino-1H-1,2,4-triazol-5-yl)-N-(3,4-dichlorophenethyl)-N-methylpiperidin-4-amine] here?
A: The IC50 was 1 to 10 µM.

Q: For `Nc1n[nH]c(N2CCC(N(CCc3ccc(Cl)cc3)Cc3cccc(CO)c3)CC2)n1` [Example 100, (3-(((1-(3-amino-1H-1,2,4-triazol-5-yl)piperidin-4-yl)(4-chlorophenethyl)amino)methyl)phenyl)methanol], which IC50 is on record?
A: The IC50 was under 0.1 µM.

Q: With `Nc1n[nH]c(N2CCN(CCOc3ccccc3F)CC2)n1` [Example 85, 5-(4-(2-(2-fluorophenoxy)ethyl)piperazin-1-yl)-1H-1,2,4-triazol-3-amine] as the molecule, how does the IC50 read?
A: Its IC50 is 10 to 100 µM.

Q: With `CC(CN1CCN(c2nc(N)n[nH]2)CC1)Oc1ccc(Br)cc1` (centres unmarked) [Example 20-1, 5-(4-(2-(4-bromophenoxy)propyl)piperazin-1-yl)-1H-1,2,4-triazol-3-amine] as the molecule, how does the IC50 read?
A: The IC50 was 10 to 100 µM.

Q: For `Nc1n[nH]c(N2CCC(NS(=O)(=O)Cc3ccc(Cl)cc3)CC2)n1` [Example 14, N-(1-(3-amino-1H-1,2,4-triazol-5-yl)piperidin-4-yl)-1-(4-chlorophenyl)methanesulfonamide dihydrochloride], which IC50 is on record?
A: The IC50 was 1 to 10 µM.

Q: `Nc1n[nH]c(N2CCC(N(CCc3ccc(Br)cc3)Cc3cccc4cnccc34)CC2)n1` [Example 168, 1-(3-amino-1H-1,2,4-triazol-5-yl)-N-(4-bromophenethyl)-N-(isoquinolin-5-ylmethyl)piperidin-4-amine] was tested. Which IC50 did it give?
A: The IC50 was under 0.1 µM.

Q: For `Nc1n[nH]c(N2CCC3C(CCCN3CCc3ccc(Br)cc3)C2)n1` (centres unmarked) [Example 253, 5-(1-(4-bromophenethyl)octahydro-1,6-naphthyridin-6(2H)-yl)-1H-1,2,4-triazol-3-amine dihydrochloride], which IC50 is on record?
A: The IC50 was under 0.1 µM.
